Laboratory results published in patent US8338468B2, “Microbicidal composition” (ISP Investments Inc., priority 2005, dated 2012).
Where “and” joins values, the source holds several entries; their conditions need not be identical. Identical values can stand only once. Like-named read-outs stand apart in the source and are kept apart here.

Legend:
Test in all cases: Synergy test (MIC) in Ringer's Solution
Format in all cases: cell-based
Staphylococcus aureus = conditions: 30° C., about 10^5 microbes per ml; for MIC: Staphylococcus aureus
Procedure: (§1) Synergy tests were conducted using microbiological standard methods. Ringer's Solution (Merck, VWR) was used for testing bacteria, yeast and mould species. In jars 100 ml aliquots of sterile Ringer Solution are dosed with the preservatives and a known inoculum of the single test species is added. A control sample containing no preservative is also used to ascertain the biocide effect on the inoculum. The prepared jars were incubated at 30° C. Aliquots are streaked out at regular intervals on specific nutrient agar so that an estimate of kill time can be determined at the same time as effective concentration. TSA (tryptic soy agar) was used for bacteria; MEA (malt extract agar) was used for yeast and moulds. The plates were visually evaluated for microbial growth to determine the MIC after various incubation times at 30° C. The synergy of the combinations of the present invention was determined against four bacteria, Pseudomonas aeruginosa, Escherichia coli, Proteus Mirabilis, and Staphylococcus aureus, a yeast, Candida albicans and two moulds Trichoderma viride and Aspergillus niger. The single micro-organisms were used at a concentration of about 10^5 microbes per ml. these micro-organisms are standard reference organisms and representative of natural contaminants in many consumer and industrial applications. […] In each test first component (A) was MIT and the second component was phenylethylalcohol (B).

Escherichia coli = conditions: 30° C., about 10^5 microbes per ml; for MIC: Escherichia coli
Procedure: as §1

Proteus Mirabilis = conditions: 30° C., about 10^5 microbes per ml; for MIC: Proteus mirabilis
Procedure: as §1

Trichoderma viride = conditions: 30° C., about 10^5 microbes per ml; for MIC: Trichoderma viride
Procedure: as §1

Candida albicans = conditions: 30° C., about 10^5 microbes per ml; for MIC: Candida albicans
Procedure: as §1

Pseudomonas aeruginosa = conditions: 30° C., about 10^5 microbes per ml; for MIC: Pseudomonas aeruginosa
Procedure: as §1

Aspergillus niger = conditions: 30° C., about 10^5 microbes per ml; for MIC: Aspergillus niger
Procedure: as §1

[1] = MIT alone, Test 1 single, Test 2.1-2.3 parallel samples
[2] = MIT alone, Test 1 single, Test 2.1-2.3 parallel samples, read-out: QA, ppm MIT acting alone, which produced an end point (MIC)
[3] = phenylethylalcohol alone, read-out: QB, ppm phenylethylalcohol acting alone, which produced an end point (MIC)

Cn1sccc1=O [MIT, 2-methyl-3-isothiazolone]
QA, ppm MIT acting alone, which produced an end point (MIC) (Staphylococcus aureus; [1]): 50 ppm | MIC (Staphylococcus aureus; [2]): 75 µg/mL | MIC (Escherichia coli; [2]): 25 µg/mL | QA, ppm MIT acting alone, which produced an end point (MIC) (Escherichia coli; [1]): 50 ppm | QA, ppm MIT acting alone, which produced an end point (MIC) (Proteus Mirabilis; [1]): 25 ppm | MIC (Proteus Mirabilis; [2]): 50 µg/mL | QA, ppm MIT acting alone, which produced an end point (MIC) (Trichoderma viride; [1]): 50 ppm | MIC (Trichoderma viride; [2]): 75 µg/mL | MIC (Candida albicans; [2]): 50 µg/mL | QA, ppm MIT acting alone, which produced an end point (MIC) (Pseudomonas aeruginosa; [1]): 25 ppm | MIC (Pseudomonas aeruginosa; [2]): 50 µg/mL | MIC (Aspergillus niger; [2]): 50 µg/mL

OCCc1ccccc1 [phenylethylalcohol]
MIC (Staphylococcus aureus; [3]): 2000 µg/mL | QB, ppm phenylethylalcohol acting alone, which produced an end point (MIC) (Staphylococcus aureus; phenylethylalcohol alone): 1500 ppm | MIC (Escherichia coli; [3]): 2500 µg/mL | QB, ppm phenylethylalcohol acting alone, which produced an end point (MIC) (Escherichia coli; phenylethylalcohol alone): 2000 ppm | MIC (Proteus Mirabilis; [3]): 2000 µg/mL | MIC (Trichoderma viride; [3]): 2000 µg/mL | QB, ppm phenylethylalcohol acting alone, which produced an end point (MIC) (Trichoderma viride; phenylethylalcohol alone): 3000 ppm | MIC (Candida albicans; [3]): 2000 µg/mL | QB, ppm phenylethylalcohol acting alone, which produced an end point (MIC) (Candida albicans; phenylethylalcohol alone): 2500 ppm and 1500 ppm | MIC (Pseudomonas aeruginosa; [3]): 2000 µg/mL | QB, ppm phenylethylalcohol acting alone, which produced an end point (MIC) (Pseudomonas aeruginosa; phenylethylalcohol alone): 2500 ppm | MIC (Aspergillus niger; [3]): 1500 µg/mL | QB, ppm phenylethylalcohol acting alone, which produced an end point (MIC) (Aspergillus niger; phenylethylalcohol alone): 2000 ppm
